≈ marks a conversion by molar mass, not a printed value. Calls of active or inactive are those of the source. The calls are words filed in the database; no cut-off is given here.
Columns and labels:
Staphylococcus aureus [1] = test: Antimicrobial activity against Staphylococcus aureus ATCC 29213 assessed as inhibition of visible growth of bacteria incubated for 20 hrs by broth microdilution method; format: functional
Enterococcus faecium [2] = test: Antimicrobial activity against Enterococcus faecium QF31 harboring erythromycin resistance rRNA methylase B and chloramphenicol-florfenicol resistance methylase assessed as inhibition of visible growth of bacteria incubated for 20 hrs by broth microdilution method; format: functional
Enterococcus faecalis [3] = test: microbe, parasite or virus in culture; format: functional; settings: SF23-1, time 20 hrs
Description: Antimicrobial activity against Enterococcus faecalis SF23-1 harboring erythromycin-resistance rRNA methylase B, tetracycline efflux protein L and chloramphenicol-florfenicol resistance methylase assessed as inhibition of visible growth of bacteria incubated for 20 hrs by broth microdilution method

Streptococcus suis [4] = test: Antimicrobial activity against Streptococcus suis P1/7 assessed as inhibition of visible growth of bacteria incubated for 20 hrs by broth microdilution method; format: functional
Staphylococcus aureus [5] = test: Antimicrobial activity against Staphylococcus aureus YZSA-15 harboring erythromycin resistance rRNA methylase C and vancomycin resistance locus assessed as inhibition of visible growth of bacteria incubated for 20 hrs by broth microdilution method; format: functional
Staphylococcus aureus [6] = test: Antimicrobial activity against Staphylococcus aureus YZSA-21 harboring erythromycin resistance rRNA methylase C assessed as inhibition of visible growth of bacteria incubated for 20 hrs by broth microdilution method; format: functional
Staphylococcus aureus [7] = test: Antimicrobial activity against Staphylococcus aureus YZSA-24 harboring erythromycin resistance rRNA methylase C and methicillin resistance gene resistance locus assessed as inhibition of visible growth of bacteria incubated for 20 hrs by broth microdilution method; format: functional
Staphylococcus aureus [8] = test: microbe, parasite or virus in culture; format: functional; settings: M92-1, time 20 hrs
Description: Antimicrobial activity against Staphylococcus aureus M92-1 harboring erythromycin resistance rRNA methylase B, tetracycline efflux protein L and oxazolidinone-phenicol transferable resistance gene assessed as inhibition of visible growth of bacteria incubated for 20 hrs by broth microdilution method

Staphylococcus aureus [9] = test: microbe, parasite or virus in culture; format: functional; settings: M147-2, time 20 hrs
Description: Antimicrobial activity against Staphylococcus aureus M147-2 harboring erythromycin resistance rRNA methylase B, tetracycline efflux protein L and chloramphenicol-florfenicol resistance methylase assessed as inhibition of visible growth of bacteria incubated for 20 hrs by broth microdilution method

Enterococcus faecium [10] = test: Antimicrobial activity against Enterococcus faecium HFY01 assessed as inhibition of visible growth of bacteria incubated for 20 hrs by broth microdilution method; format: functional
Enterococcus faecium [11] = test: Antimicrobial activity against Enterococcus faecium MC38 harboring erythromycin resistance rRNA methylase B and oxazolidinone-phenicol transferable resistance gene assessed as inhibition of visible growth of bacteria incubated for 20 hrs by broth microdilution method; format: functional
Enterococcus faecalis [12] = test: Antimicrobial activity against Enterococcus faecalis JH2-2 assessed as inhibition of visible growth of bacteria incubated for 20 hrs by broth microdilution method; format: functional
Enterococcus faecalis [13] = test: Antimicrobial activity against Enterococcus faecalis ES01 harboring erythromycin-resistance rRNA methylase B and vanB-type vancomycin-resistance locus assessed as inhibition of visible growth of bacteria incubated for 20 hrs by broth microdilution method; format: functional
Enterococcus faecalis [14] = test: Antimicrobial activity against Enterococcus faecalis J2 harboring erythromycin-resistance rRNA methylase B and oxazolidinone phenicol transferable resistance gene assessed as inhibition of visible growth of bacteria incubated for 20 hrs by broth microdilution method; format: functional
Streptococcus suis [15] = test: microbe, parasite or virus in culture; format: functional; settings: SH0918, time 20 hrs
Description: Antimicrobial activity against Streptococcus suis SH0918 harboring erythromycin-resistance rRNA methylase B, tetracycline efflux protein O and oxazolidinone phenicol transferable resistance gene assessed as inhibition of visible growth of bacteria incubated for 20 hrs by broth microdilution method

Streptococcus pyogenes = test: Antimicrobial activity against Streptococcus pyogenes DL02 harboring erythromycin-resistance rRNA methylase B assessed as inhibition of visible growth of bacteria incubated for 20 hrs by broth microdilution method; format: functional
Streptococcus agalactiae = test: Antimicrobial activity against Streptococcus agalactiae DL03 harboring erythromycin-resistance rRNA methylase B assessed as inhibition of visible growth of bacteria incubated for 20 hrs by broth microdilution method; format: functional
Escherichia coli = test: Antimicrobial activity against Escherichia coli ATCC 25922 assessed as inhibition of visible growth of bacteria incubated for 20 hrs by broth microdilution method; format: functional
Salmonella enteritidis = test: Antimicrobial activity against Salmonella enteritis S1 assessed as inhibition of visible growth of bacteria incubated for 20 hrs by broth microdilution method; format: functional, Salmonella enterica subsp. enterica serovar Enteritidis; settings: Salmonella enterica
Klebsiella pneumoniae = test: Antimicrobial activity against Klebsiella pneumoniae 9-1 assessed as inhibition of visible growth of bacteria incubated for 20 hrs by broth microdilution method; format: functional
Acinetobacter baumannii [16] = test: Antimicrobial activity against Acinetobacter baumannii AB11 assessed as inhibition of visible growth of bacteria incubated for 20 hrs by broth microdilution method; format: functional
Acinetobacter baumannii [17] = test: Antimicrobial activity against Acinetobacter baumannii 7979 assessed as inhibition of visible growth of bacteria incubated for 20 hrs by broth microdilution method; format: functional
Pseudomonas aeruginosa [18] = test: Antimicrobial activity against Pseudomonas aeruginosa PA01 assessed as inhibition of visible growth of bacteria incubated for 20 hrs by broth microdilution method; format: functional
Pseudomonas aeruginosa [19] = test: Antimicrobial activity against Pseudomonas aeruginosa PA14 assessed as inhibition of visible growth of bacteria incubated for 20 hrs by broth microdilution method; format: functional
Staphylococcus aureus [20] = test: Bactericidal activity against Staphylococcus aureus ATCC 29213 assessed as decrease in bacterial number measured within 12 hrs by time-kill kinetics assay; format: functional, organism-based
Staphylococcus aureus [21] = test: Bactericidal activity against Staphylococcus aureus ATCC 29213 assessed as log reduction in bacterial number at 4 times of MIC measured after 24 hrs by time-kill kinetics assay; format: functional
Staphylococcus aureus [22] = test: Bactericidal activity against Staphylococcus aureus ATCC 29213 assessed as bacterial killing at 8 times of MIC measured within 12 hrs by time-kill kinetics assay; format: functional, organism-based
Staphylococcus aureus [23] = test: Drug resistance, ratio of MIC for Staphylococcus aureus ATCC 29213 measured after 28 days to MIC for Staphylococcus aureus ATCC 29213 measured after 20 hrs; format: functional
[24] = Cytotoxicity against human HEp-2 cells assessed as cell viability at 16 times of MIC incubated for 48 hrs by CCK8 assay (reference value: 100 %); format: toxicity, cell-based; settings: read-out: Activity
[25] = Cytotoxicity against human HEp-2 cells assessed as cell viability at 8 times of MIC incubated for 48 hrs by CCK8 assay (reference value: 100 %); format: toxicity, cell-based; settings: read-out: Activity
[26] = Cytotoxicity against human HEp-2 cells assessed as cell viability at 4 times of MIC incubated for 48 hrs by CCK8 assay (reference value: 100 %); format: toxicity, cell-based; settings: read-out: Activity
[27] = Cytotoxicity against human HEp-2 cells assessed as cell viability at 2 times of MIC incubated for 48 hrs by CCK8 assay (reference value: 100 %); format: toxicity, cell-based; settings: read-out: Activity
[28] = Cytotoxicity against human HEp-2 cells assessed as cell viability at 1 time of MIC incubated for 48 hrs by CCK8 assay (reference value: 100 %); format: toxicity, cell-based; settings: read-out: Activity
[29] = Cytotoxicity against human Caco-2 cells assessed as cell viability at 16 times of MIC incubated for 48 hrs by CCK8 assay (reference value: 99.54 %); format: toxicity, cell-based; settings: read-out: Activity
[30] = Cytotoxicity against human Caco-2 cells assessed as cell viability at 8 times of MIC incubated for 48 hrs by CCK8 assay (reference value: 99.54 %); format: toxicity, cell-based; settings: read-out: Activity
[31] = Cytotoxicity against human Caco-2 cells assessed as cell viability at 4 times of MIC incubated for 48 hrs by CCK8 assay (reference value: 99.54 %); format: toxicity, cell-based; settings: read-out: Activity
[32] = Cytotoxicity against human Caco-2 cells assessed as cell viability at 2 times of MIC incubated for 48 hrs by CCK8 assay (reference value: 99.54 %); format: toxicity, cell-based; settings: read-out: Activity
[33] = Cytotoxicity against human Caco-2 cells assessed as cell viability at 1 time of MIC incubated for 48 hrs by CCK8 assay (reference value: 99.54 %); format: toxicity, cell-based; settings: read-out: Activity
[34] = Hemolytic activity in Kunming mouse erythrocytes measured after 1 hrs by absorbance based assay; format: toxicity, cell-based, Erythrocyte
[35] = Hemolytic activity in Kunming mouse erythrocytes assessed as hemolysis at 16 times of MIC measured after 1 hrs by absorbance based assay relative to control; format: toxicity, cell-based, Erythrocyte; settings: read-out: Activity
[36] = Hemolytic activity in Kunming mouse erythrocytes assessed as hemolysis at 8 times of MIC measured after 1 hrs by absorbance based assay relative to control; format: toxicity, cell-based, Erythrocyte; settings: read-out: Activity
[37] = Hemolytic activity in Kunming mouse erythrocytes assessed as hemolysis at 4 times of MIC measured after 1 hrs by absorbance based assay relative to control; format: toxicity, cell-based, Erythrocyte; settings: read-out: Activity
[38] = Hemolytic activity in Kunming mouse erythrocytes assessed as hemolysis at 2 times of MIC measured after 1 hrs by absorbance based assay relative to control; format: toxicity, cell-based, Erythrocyte; settings: read-out: Activity
[39] = Hemolytic activity in Kunming mouse erythrocytes assessed as hemolysis at 1 time of MIC measured after 1 hrs by absorbance based assay relative to control; format: toxicity, cell-based, Erythrocyte; settings: read-out: Activity
Signal peptidase I = Signal peptidase I (Escherichia coli K-12, UniProt P00803); test: Binding affinity to recombinant 6His-tagged Escherichia coli LepB (77 to 324 residues) extracted from Escherichia coli BL21 (DE3) cells assessed as dissociation constant by MST analysis
Sequence of Signal peptidase I (P00803 whole entry, the tested form may be a part): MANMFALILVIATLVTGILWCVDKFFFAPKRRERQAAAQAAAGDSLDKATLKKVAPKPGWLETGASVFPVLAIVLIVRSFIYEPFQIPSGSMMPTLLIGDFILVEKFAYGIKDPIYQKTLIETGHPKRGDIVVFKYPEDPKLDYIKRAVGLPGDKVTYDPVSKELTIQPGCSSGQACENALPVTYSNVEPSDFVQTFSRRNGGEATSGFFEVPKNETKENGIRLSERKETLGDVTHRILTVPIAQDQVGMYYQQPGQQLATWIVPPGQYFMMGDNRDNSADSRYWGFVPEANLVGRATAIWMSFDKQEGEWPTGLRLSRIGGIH

CCCCCCc1ccc(-c2ccc(/C=C3\CC(C)Cc4c3nc3ccc(OC)cc3c4C(=O)O)cn2)cc1 (racemic)
MIC (Staphylococcus aureus [1]): 4 µg/mL (≈ 7.68 µM) | MIC (Enterococcus faecium [2]): 4 µg/mL (≈ 7.68 µM) | MIC (Enterococcus faecalis [3]): 8 µg/mL (≈ 15.4 µM) | MIC (Streptococcus suis [4]): 32 µg/mL (≈ 61.5 µM) | MIC (Staphylococcus aureus [5]): 4 µg/mL (≈ 7.68 µM) | MIC (Staphylococcus aureus [6]): 4 µg/mL (≈ 7.68 µM) | MIC (Staphylococcus aureus [7]): 4 µg/mL (≈ 7.68 µM) | MIC (Staphylococcus aureus [8]): 4 µg/mL (≈ 7.68 µM) | MIC (Staphylococcus aureus [9]): 4 µg/mL (≈ 7.68 µM) | MIC (Enterococcus faecium [10]): 4 µg/mL (≈ 7.68 µM) | MIC (Enterococcus faecium [11]): 4 µg/mL (≈ 7.68 µM) | MIC (Enterococcus faecalis [12]): 8 µg/mL (≈ 15.4 µM) | MIC (Enterococcus faecalis [13]): 4 µg/mL (≈ 7.68 µM) | MIC (Enterococcus faecalis [14]): 4 µg/mL (≈ 7.68 µM) | MIC (Streptococcus suis [15]): 32 µg/mL (≈ 61.5 µM) | MIC (Streptococcus pyogenes): 16 µg/mL (≈ 30.7 µM) | MIC (Streptococcus agalactiae): 8 µg/mL (≈ 15.4 µM) | MIC (Escherichia coli): > 128 µg/mL | MIC (Salmonella enteritidis): > 128 µg/mL | MIC (Klebsiella pneumoniae): > 128 µg/mL | MIC (Acinetobacter baumannii [16]): > 128 µg/mL | MIC (Acinetobacter baumannii [17]): > 128 µg/mL | MIC (Pseudomonas aeruginosa [18]): > 128 µg/mL | MIC (Pseudomonas aeruginosa [19]): > 128 µg/mL | Activity (Staphylococcus aureus [20]): Dose-dependent-effect | Activity (Staphylococcus aureus [21]): 2.6 log10CFU/ml | Activity (Staphylococcus aureus [22]): Active | Ratio (Staphylococcus aureus [23]): 4 | viability at 48 h, 16 times of MIC [24]: 1.91% | viability at 48 h, 8 times of MIC [25]: 39% | viability at 48 h, 4 times of MIC [26]: 64% | viability at 48 h, 2 times of MIC [27]: 94.1% | viability at 48 h, 1 time of MIC [28]: 101% | viability at 48 h, 16 times of MIC [29]: 1.44% | viability at 48 h, 8 times of MIC [30]: 17.8% | viability at 48 h, 4 times of MIC [31]: 49.7% | viability at 48 h, 2 times of MIC [32]: 73.5% | viability at 48 h, 1 time of MIC [33]: 99.7% | HC50 at 1 h [34]: 34.8 µg/mL | hemolysis at 1 h, 16 times of MIC [35]: 72.5% | hemolysis at 1 h, 8 times of MIC [36]: 55.8% | hemolysis at 1 h, 4 times of MIC [37]: 0.98% | hemolysis at 1 h, 2 times of MIC [38]: 0.33% | hemolysis at 1 h, 1 time of MIC [39]: 0% | Kd (Signal peptidase I): 20.9 µM

— ChEMBL document CHEMBL6078677, “Discovery and optimization of tetrahydroacridine derivatives as a novel class of antibiotics against multidrug-resistant Gram-positive pathogens by targeting type I signal peptidase and disrupting bacterial membrane” (Eur J Med Chem, 2025)
